Key:
β-amyloid 1–42 = tested on: T1, β-amyloid 1–42; test: β-amyloid 1–42 aggregation, Thioflavin T fluorescence; type: biochemical; conditions: 100 μM, 72 h incubation
T1 construct: fragments Aβ1–40 and Aβ1–42
Description: The effect of the studied compounds on the aggregation of β-amyloid (1–40/1–42) was analyzed using the method of recording Thioflavin T fluorescence (10 µM) for 72 h at 37 °C. The fluorescence signal was measured using a multifunctional flatbed analyzer, the Cytation ™ 3 (BioTek Instruments, Inc., Winooski, VT, USA), at λex = 450 nm, λem = 480 nm.
The effect of hydroxamic acids on the stage of aggregation of the pathological β-amyloid peptide was investigated for 72 h using two model systems—fragments Aβ1–40 and Aβ1–42. The fluorophore Thioflavin T was used as an indicator of the ongoing fibrillation process, the interaction of which with proteins in the state of amyloid fibrils leads to an increase in the fluorescence signal.

[1] = Stability in rat blood plasma, LC–MS/MS; type: in vitro ADME; conditions: 1000 ng/mL spike
Description: EDTA-stabilized rat blood plasma was used in the study. The spikes were prepared by adding 100 µL of the solution of a compound to 900 µL of plasma, followed by continuous shaking. A 100 µL aliquot of a sample was taken and mixed with 900 µL of MeOH, shaken for 15 min, and centrifuged. Then, 100 µLc of the supernatant was transferred to a vial insert and analyzed.
HPLC–MS/MS analyses were performed using a Shimadzu LC-20AD Prominence chromatograph equipped with a SIL-20AC cooled autosampler and a gradient pump. A column filled with a reversed-phase ProntoSil 120-AQ C18 sorbent (Econova, Novosibirsk) was used. Water with the addition of 0.1% HCOOH was used as mobile phase A, and methanol containing 0.1% HCOOH was used as mobile phase B. The gradient was as follows: 0 min—5% B; 1 min—5% B; 2 min—95% B; 5 min—100% B; the flow rate was 300 μL/min; the injection volume was 10 μL. The column was then equilibrated for the following analysis. […]
To study the stability of the compounds, their solutions (spikes) in rat blood plasma were prepared with a concentration of 1000 ng/mL. […] Aliquots of the spike with a volume of 100 μL were taken after 5, 15, 30, 60, 120, 180, and 270 min, after which the sample was mixed with MeOH, shaken for 10 min, then centrifuged and analyzed with LC–MS/MS.

5xFAD transgenic mice = test: Novel Object Recognition Test in 5xFAD mice; type: in vivo; conditions: 15 mg/kg i.p. for 20 days, testing trial 24 h after familiarization
Description: All animal procedures were approved by the Animal Care and Use Committee of IPAC RAS. For in vivo studies, 11-month-old male mice of the 5xFAD line (Tg(APPSwFlLon,PSEN1*M146L*L286V) 6799Vas/J) were used. The animals were housed in cages with free access to water and food in a room with a 12 h/12 h light–dark cycle, at a temperature of 23 ± 1 °C and humidity of 50 ± 5%. Before the series of experiments, animals were randomly divided into four groups (n = 8 per group): (1) wild-type group (C57BL6/j mouse line); (2) 5xFAD group; (3) 5xFAD + 15 group; and (4) 5xFAD + 25 group.
Both compounds 15 and 25 were dissolved in saline solution and DMSO (10%) immediately before use and intraperitoneally administered to animals for 20 days at a dose of 15 mg/kg body weight for experiments. In the control group, the vehicle solution (saline and DMSO (10%), intraperitoneal) was administered with the same time schedule.
The Novel Object Recognition Test assesses a mouse’s ability to remember if it has previously encountered an object or not. The same box that had been used in the open field test was used for the Novel Object Recognition Test. Mice were habituated to the box one day before the test, during the open field test. […] All trials were videotaped and analyzed with a computer-operated EthoVision XT system (Noldus, Wageningen, the Netherlands). […]

Row | Time stable in rat blood plasma [1] [h] | SMILES | Effect on β-amyloid 1–42 aggregation (β-amyloid 1–42) | half-life at 1000 ng/mL ([1]; rat, EDTA-stabilized rat blood plasma, estimated from the graph) [h] | Novel object preference (episodic memory) (5xFAD transgenic mice)
1 | – | O=C(CCCCCCC(=O)NC1C2CC3CC(C2)CC1C3)NO (stereo not drawn) [compound 15, N^1-(Adamant-2-yl)-N^8-Hydroxyoctanediamide] | noticeable fibrillation inhibition | 1 to 1.17 | significantly showed a strong preference and spent more time studying a new object
2 | ≥ 4.5 | O=C(/C=C/c1ccc(C(=O)NO)cc1)NC1C2CC3CC(C2)CC1C3 (stereo not drawn) [compound 25, 4-((E)-3-((-Adamantan-2-yl)amino)-3-Oxoprop-1-en-1-yl)-N-Hydroxybenzamide] | noticeable fibrillation inhibition | – | began to show memory impairment when presented with a new object
